# Reference: the supplement of paper PMC7840683
# ± gives the standard deviation of the averaged measurements.
# Tested on: HepaRG
# Assay: LDH release cytotoxicity, % of total lysis control; higher = more cytotoxic
# Conditions: 48 h
# Method in brief: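 Eight-point half-log series of test chemicals, the highest at 100 µM, were given in duplicate for 48 h to single-lot HepaRG cells on collagen I-coated 96-well plates in serum-free induction medium with 0.5% DMSO. A Tecan Safire read resorufin fluorescence from CytoTox-ONE as a measure of LDH in 50 µL spent medium, with 0.1% Triton X in total lysis wells. Percent cytotoxicity was normalized to on-plate vehicle and total lysis controls and averaged over the duplicates.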
Structure (SMILES),LDH release cytotoxicity (0.03162 µM),LDH release cytotoxicity (0.1 µM),LDH release cytotoxicity (0.3162278 µM),LDH release cytotoxicity (1 µM),LDH release cytotoxicity (3.16228 µM),LDH release cytotoxicity (10 µM),LDH release cytotoxicity (31.6228 µM),LDH release cytotoxicity (100 µM),other results
C=CCCCCCCCCC(=O)O [10-Undecenoic acid],0.758 ± 0.055%,-0.653 ± 0.55%,-0.789 ± 0.79%,-0.96 ± 0.32%,-0.518 ± 0.55%,-0.534 ± 0.037%,-1.07 ± 0.49%,-0.0729 ± 0.15%,
CC12CCC(=O)C=C1CCC1C2CCC2(C)C1CCC2(C)O (stereo unspecified) [17-Methyltestosterone],-1.79 ± 1.4%,-1.97 ± 0.62%,-1.97 ± 1.4%,-1.95 ± 2.3%,-2.67 ± 0.81%,-2.51 ± 1.4%,-2.52 ± 1.9%,-1.06 ± 1.5%,
CC12CCC3c4ccc(O)cc4CCC3C1CCC2O (stereo not drawn) [17alpha-Estradiol],-0.65 ± 1.4%,-1.91 ± 0.5%,-1.67 ± 0.056%,-1.6 ± 0.054%,-1.26 ± 0.039%,-1.72 ± 0.24%,-0.072 ± 0.52%,1.51 ± 0.69%,
C#CC1(O)CCC2C3CCc4cc(O)ccc4C3CCC21C (stereo not drawn) [17alpha-Ethinylestradiol],-0.935 ± 0.49%,-0.618 ± 0.51%,-0.346 ± 0.13%,-0.588 ± 0.39%,-0.768 ± 0.53%,-0.554 ± 1.1%,0.171 ± 0.51%,1.412 ± 0.013%,
CC(=O)C1(O)CCC2C3CCC4=CC(=O)CCC4(C)C3CCC21C (stereo not drawn) [17alpha-Hydroxyprogesterone],-0.419 ± 1.4%,-1.4 ± 0.7%,-2.18 ± 0.12%,-1.25 ± 0.037%,-0.766 ± 0.45%,0.609 ± 1.4%,-0.397 ± 0.26%,0.684 ± 1.3%,
CC12CCC3c4ccc(O)cc4CCC3C1CCC2O (stereo not drawn) [17beta-Estradiol],,,,,,,,,LDH release cytotoxicity (0.01581 µM): -0.962 ± 0.82%; LDH release cytotoxicity (0.05 µM): -1.17 ± 0.59%; LDH release cytotoxicity (0.1581139 µM): -1.03 ± 0.66%; LDH release cytotoxicity (0.5 µM): -1.37 ± 0.08%; LDH release cytotoxicity (1.5811388 µM): -1.1 ± 0.62%; LDH release cytotoxicity (5 µM): -0.844 ± 0.077%; LDH release cytotoxicity (15.8114 µM): -0.113 ± 0.6%; LDH release cytotoxicity (50 µM): 6.2 ± 1.8%
CC12C=CC3=C4CCC(=O)C=C4CCC3C1CCC2O (stereo not drawn) [17beta-Trenbolone],-1.81 ± 0.85%,-1.96 ± 0.88%,-2.23 ± 1%,-1.89 ± 0.49%,-1.55 ± 0.47%,-1.02 ± 0.27%,-1.05 ± 0.63%,0.211 ± 0.55%,
"CC(C)=CCC/C(C)=C\CO [(2Z)-3,7-Dimethylocta-2,6-dien-1-ol]",-0.521 ± 1.3%,-0.112 ± 1.1%,0.637 ± 0.11%,0.207 ± 0.16%,0.25 ± 0.08%,0.588 ± 0.27%,0.393 ± 0.26%,1.1 ± 0.14%,
C/C=C/c1ccc(OC)cc1 [(E)-Anethole],-0.814 ± 0.42%,-0.865 ± 0.97%,-1.3 ± 0.57%,-0.855 ± 0.66%,-1.25 ± 0.25%,-0.44 ± 0.067%,-0.316 ± 0.29%,1.16 ± 1%,
"O=C(N[C@H]1CN2CCC1CC2)c1cc2ccoc2cn1 [(R)-N-(Quinuclidin-3-yl)furo(2,3-C)pyridine-5-carboxamide]",-0.025 ± 0.11%,1.01 ± 0.6%,0.216 ± 0.84%,0.437 ± 0.39%,1.24 ± 0.3%,0.814 ± 0.5%,1.28 ± 0.19%,1.77 ± 0.61%,
O=C(NC(=O)c1cc(F)c(F)cc1Cl)Nc1cc(F)ccc1N1CCC(C(=O)O)CC1 [AVE2865],,,,,,,,,LDH release cytotoxicity (0.01581 µM): 0.296 ± 0.54%; LDH release cytotoxicity (0.05 µM): -1.08 ± 0.4%; LDH release cytotoxicity (0.1581139 µM): -1.31 ± 0.41%; LDH release cytotoxicity (0.5 µM): -0.965 ± 0.11%; LDH release cytotoxicity (1.5811388 µM): -1.15 ± 0.067%; LDH release cytotoxicity (5 µM): -0.168 ± 0.023%; LDH release cytotoxicity (15.8114 µM): 0.386 ± 0.34%; LDH release cytotoxicity (50 µM): 0.68 ± 0.52%
O=C(O)c1ccc2c(c1)nc(C(=O)NC1CCN(C3CC3)CC1)n2Cc1cc(-c2ccc(Cl)s2)on1 [AVE3247],,,,,,,,,LDH release cytotoxicity (0.0075895 µM): -0.875 ± 0.16%; LDH release cytotoxicity (0.024 µM): -2.04 ± 0.26%; LDH release cytotoxicity (0.0758947 µM): -2.37 ± 0.35%; LDH release cytotoxicity (0.24 µM): -2.63 ± 0.092%; LDH release cytotoxicity (0.758947 µM): -2.23 ± 0.33%; LDH release cytotoxicity (2.4 µM): -1.94 ± 0.17%; LDH release cytotoxicity (7.58947 µM): -1.68 ± 0.43%; LDH release cytotoxicity (24 µM): -0.941 ± 0.19%
CCC(NC(=O)c1cc(F)ccc1NS(=O)(=O)c1cccc2cccnc12)c1ccccc1 (stereo unspecified) [AVE3295],,,,,,,,,LDH release cytotoxicity (0.0301998 µM): -1.81 ± 0.3%; LDH release cytotoxicity (0.0955 µM): -1.66 ± 1.1%; LDH release cytotoxicity (0.301997 µM): -1.7 ± 0.59%; LDH release cytotoxicity (0.955 µM): -1.55 ± 0.55%; LDH release cytotoxicity (3.01998 µM): -1.75 ± 0.27%; LDH release cytotoxicity (9.55 µM): -2.12 ± 0.47%; LDH release cytotoxicity (30.199752 µM): -1.2 ± 0.89%; LDH release cytotoxicity (95.5 µM): 4.69 ± 0.74%
NCc1cccc(C2CCN(C(=O)c3ccc(C#Cc4ccccc4F)o3)CC2)c1 [AVE5638],0.161 ± 0.38%,0.0623 ± 0.48%,0.0711 ± 0.39%,0.0437 ± 0.62%,0.441 ± 0.0046%,0.359 ± 0.33%,3.69 ± 0.52%,65.1 ± 7.6%,
CCOC(=O)OC(C)OC(=O)c1ccc2c(c1)cc(C(=O)NC1CCN(C(C)C)CC1)n2Cc1cc(-c2ccc(Cl)s2)on1 (stereo unspecified) [AVE6324],,,,,,,,,LDH release cytotoxicity (0.02988 µM): -0.39 ± 1.6%; LDH release cytotoxicity (0.0945 µM): -0.573 ± 0.22%; LDH release cytotoxicity (0.298835 µM): -0.553 ± 1.2%; LDH release cytotoxicity (0.945 µM): -1.09 ± 0.69%; LDH release cytotoxicity (2.98835 µM): -0.186 ± 0.77%; LDH release cytotoxicity (9.45 µM): 1.15 ± 0.64%; LDH release cytotoxicity (29.8835 µM): 1.55 ± 1.8%; LDH release cytotoxicity (94.5 µM): 48.4 ± 7.1%
CN1CCN(Cc2cc(-c3ccc4nc(O)oc4c3)co2)C(c2ccc(F)cc2)C1 (stereo unspecified) [AVE8488],-0.724 ± 0.27%,-1.47 ± 0.17%,-0.841 ± 0.31%,-0.702 ± 0.13%,-1.52 ± 0.25%,-0.46 ± 0.076%,0.998 ± 0.15%,9.54 ± 0.2%,
CCCOc1sc(C(=O)N2CCC(c3cc(CN)ccc3F)CC2)c(C)c1Br [AVE8923],,,,,,,,,LDH release cytotoxicity (0.002846 µM): 0.846 ± 0.37%; LDH release cytotoxicity (0.009 µM): -1.04 ± 0.12%; LDH release cytotoxicity (0.02846 µM): -1.76 ± 0.7%; LDH release cytotoxicity (0.09 µM): -1.75 ± 0.022%; LDH release cytotoxicity (0.284605 µM): -1.48 ± 0.47%; LDH release cytotoxicity (0.9 µM): -1.21 ± 0.12%; LDH release cytotoxicity (2.84605 µM): -0.426 ± 0.15%; LDH release cytotoxicity (9 µM): -0.0454 ± 0.26%
